Series [1] has as its system methicillin-resistant Staphylococcus pseudintermedius. The experiment in a line: MBC determination against MRSP clinical isolates. The class given is cell-based. The note with it: six MRSP isolates. As for the experimental part:
(§1) The MBC was determined by plating 5 μL from wells on the 96-well microtiter plate (where the MIC was determined) where no growth was observed onto Tryptic soy agar (TSA) plates. […] The MBC was categorized as the concentration where ≥99% reduction in bacterial cell count was observed.

Series [2] deals with MRSP SP3. The experiment in a line: Post-antibiotic effect against MRSP. Type of series: cell-based, Staphylococcus pseudintermedius. The note with it: 4 × MIC for one hour. As for the experimental part:
A tube containing untreated bacterial cells served as a control. Afterward, the compound/antibiotic was washed out by diluting bacteria 1:1000 in MHB. Counts of CFU for all cultures were obtained after washing. Aliquots (100 μL) of bacteria were removed every hour (for 10 hours), serially diluted in PBS, and plated on TSA plates. TSA plates were incubated for 20 hours at 37°C before CFU values were determined.

Series [3] concerns methicillin-resistant Staphylococcus pseudintermedius. The experiment in a line: MIC by broth microdilution against MRSP clinical isolates. The class given is cell-based. The note with it: six MRSP isolates, triplicate. As for the experimental part:
(§2) Fifteen isolates of S. pseudintermedius (nine MSSP and six MRSP), identified at the Indiana Animal Disease Diagnostic Laboratory from specimens collected from dogs admitted to the small animal teaching hospital at Purdue University, were included in the study. The specimens were not collected specifically for this research study but were obtained from patients admitted to the hospital for treatment. Clinical specimens were inoculated onto 5% sheep blood agar and incubated at 35°C for 18–24 hours. Standard methods including examination of colony morphology and hemolysis and biochemical tests such as tube coagulase, Voges-Proskauer (VP) and fermentation tests for maltose, trehalose and lactose, were used in addition to matrix-assisted laser desorption ionization time of flight mass spectrometry to identify isolates. Antimicrobial susceptibility was determined by broth microdilution using the SensiTitre (Thermofisher Scientific).
(§3) Bacteria were prepared in phosphate-buffered saline (PBS) until a McFarland standard of 0.5 was achieved. The solution was subsequently diluted 1:300 in Mueller-Hinton broth (MHB) to reach a starting inoculum of 1 × 10^5 colony-forming units (CFU/mL). Bacteria were then transferred to a 96-well microtiter plate. Thiazole compounds and antibiotics were added (in triplicate) to wells in the first row of the microtiter plate and then serially diluted along the vertical axis. […] The MIC was categorized as the concentration where there was no visible growth of bacteria observed.

Series [4] is described as follows: Microsomal stability analysis in dog liver microsomes. The class given is in vitro ADME. The note with it: pH 7.4, dog liver microsomes. As for the experimental part: The reaction contained microsomal protein in 100 mM potassium phosphate, 2 mM NADPH, 3 mM MgCl2, pH 7.4. A control was run for each test agent omitting NADPH to detect NADPH-free degradation. At 0, 10, 20, 40, and 60 minutes, an aliquot was removed from each experimental and control reaction and mixed with an equal volume of ice-cold Stop Solution (methanol containing haloperidol, diclofenac, or other internal standard). Stopped reactions were incubated at least 10 minutes at -20°C, and an additional volume of water was subsequently added. The samples were centrifuged to remove precipitated protein, and the supernatants were analyzed by LC/MS/MS to quantitate the remaining parent. Data were converted to % remaining by dividing by the time zero concentration value. Data were then fitted to a first-order decay model to determine half-life. Intrinsic clearance was calculated from the half-life and the protein concentrations, as has been described elsewhere.

Series [5] relates to MRSP SP3. The experiment in a line: Time-kill analysis against MRSP. The note with it: 4 × MIC, MRSP SP3, 24 hour incubation at 37°C. Type of series: cell-based, Staphylococcus pseudintermedius. As for the experimental part:
MRSP SP3 cells in late logarithmic growth phase were diluted to ~1 × 10^6 CFU/mL and exposed to concentrations equivalent to 4 × MIC (in triplicate) of thiazole compounds 1–6 and rifampicin in MHB. Samples (20 μL) were collected after 0, 2, 4, 6, 8, 10, 12, and 24 hours of incubation at 37°C and subsequently serially diluted in PBS. Bacteria were then transferred to TSA plates and incubated at 37°C for 20–24 hours before viable CFU/mL values were determined.

A short description of series [6]: Kinetic (turbidimetric) solubility in PBS. The note with it: aqueous buffer, kinetic from dmso stock; phosphate-buffered saline; highest concentration with no precipitate; read-out: Solubility Limit. The class given is physicochemical. As for the experimental part:
The absorbance of the PBS-containing plate was measured prior to addition of the test agents to determine the background absorbance. After 2 hours, the presence of precipitate was detected by turbidity (absorbance at 540 nm).

The conditions of series [7]: human liver microsomes; cited from earlier work.
Series [8] deals with methicillin-sensitive Staphylococcus pseudintermedius. The experiment in a line: MBC determination against MSSP clinical isolates. Type of series: cell-based. The note with it: nine MSSP isolates. As for the experimental part: as §1
Series [9] has as its system MRSP SP3. Description: Checkerboard assay of thiazole compounds with oxacillin. Type of series: cell-based, Staphylococcus pseudintermedius. As for the experimental part: The relationship between the thiazole compounds and oxacillin was assessed via a standard checkerboard assay. Bacteria (MRSP SP3) equivalent to a McFarland standard of 0.5 were prepared in PBS. The bacteria were next diluted in MHB to achieve a starting cell density of 1 × 10^5 CFU/mL. MHB was transferred to all wells of a 96-well microtiter plate. […] Oxacillin was serially diluted along the abscissa of the microtiter plate while the thiazole compound was serially diluted along the ordinate. The plate was incubated for 22–24 hours at 37°C. The MIC of the test compound in combination with oxacillin was determined as the lowest concentration of each compound/antibiotic where no visible growth of bacteria was observed. The fractional inhibitory concentration index (ƩFIC) was calculated for each combination as described previously. A synergistic relationship was classified as an FIC index less than or equal to 0.5. […]

Series [10] deals with methicillin-sensitive Staphylococcus pseudintermedius. The experiment in a line: MIC by broth microdilution against MSSP clinical isolates. The class given is cell-based. The note with it: nine MSSP isolates, triplicate. As for the experimental part:
as §2, §3

Converted amounts (≈) assume the structure as drawn. Read-outs that look alike come from different tables or passages of the source.

With `CCCCC#Cc1ccc(-c2nc(C)c(/C(C)=N/NC(=N)N)s2)cc1` [Compound 3], the MBC in series [1] (Staphylococcus pseudintermedius, read-out: MBC50) worked out at 0.71 µg/mL (≈ 2.01 µM); in [8] (Staphylococcus pseudintermedius, lowest concentration that killed 50% of isolates, read-out: MBC50), 0.71 µg/mL (≈ 2.01 µM). The “MBC Range” value in series [1] and in [8] was 0.18 to 1.41 µg/mL in each case. For the same compound, the “Post-antibiotic Effect” value with MRSP SP3 [2] was above 9 h. Moreover, the MIC50 amounted to 0.48 µg/mL (≈ 1.36 µM) in series [3] (Staphylococcus pseudintermedius, read-out: MIC50) and 0.71 µg/mL (≈ 2.01 µM) in series [10] (lowest concentration inhibiting growth in 50% of isolates). For the same compound, in series [3], the “MIC Range” value lay within 0.18 to 1.41 µg/mL. Further, the microsomal CLint came to 6.6 µL/min/mg in [4] (NADPH omitted, read-out: NADPH-free CLint) and 18.7 µL/min/mg in series [4] (with NADPH, duplicate, read-out: NADPH-dependent CLint). Further, the half-life is 5.85 h in series [4] (NADPH omitted, read-out: NADPH-free T1/2); 2.05 h in [4] (with NADPH, duplicate, read-out: NADPH-dependent T1/2); “more than 240 minutes” in series [7]. Besides, the “time required to completely eliminate MRSP” value with MRSP SP3 [5] was “within two hours”. In addition, the solubility at 2 h in [6] stood at 5.51 µg/mL (≈ 15.6 µM). Also, the clearance rate in [7] was 3.7 µL/min/mg. For the same compound, the relationship with oxacillin result in the series with MRSP SP3 [9] (checkerboard assay) is on record as “synergistic”. Besides, the ƩFIC with MRSP SP3 [9] (combination with oxacillin, ≤ 0.5 synergistic, > 0.5 to ≤ 4.0 indifference, > 4 antagonistic) was 0.38. For the same compound, in [10] (read-out: MIC Range), the MIC is 0.18 to 0.94 µg/mL (≈ 0.509 to 2.66 µM).

The record behind these values is PMC4472782, “Antibacterial Characterization of Novel Synthetic Thiazole Compounds against Methicillin-Resistant Staphylococcus pseudintermedius” (PLoS ONE, 2015).
